# Like-named read-outs stand apart in the source and are kept apart here.
# Legend:
# aldose reductase = biological target: T1, aldose reductase (Bos taurus, UniProt P16116); experiment: Aldose reductase inhibition in vitro (enzyme preparation from bovine lens, modified Hayman and Kinoshita procedure); assay type: biochemical; details: for inhibition at 1 µM / inhibition at 10 µM: read-out: % Inhibition IN VITRO; for inhibition at 0.1 µM / % Inhibition IN VITRO: 10^-7 M
# T1 construct: preparation of the enzyme from bovine lens; from tissue; host or cells: bovine lens
# Procedure: (§1) Only two minor reagent changes were made: (a) The rinsing mixture was an aqueous 5% (w/v) trichloroacetic acid solution and (b) the stock solution was prepared by dissolving 25 mg of dulcitol in 100 mL of an aqueous trichloroacetic acid solution. [N.B.: For each experiment the average value found in the tissue from rats fed the glucose diet was subtracted from the individual values found in the corresponding tissue in galactose-fed rats to obtain the amount of polyol accumulated.] […] In the present case the procedure of Hayman and Kinoshita was modified in that the final chromatography step was omitted in the preparation of the enzyme from bovine lens.
# [1] = tested on: lens (galactitol accumulation); experiment: Galactitol (dulcitol) accumulation in lens of galactosemic rats; assay type: in vivo, rat (male, Sprague-Dawley); details: four days
# Excerpt: (§2) The aldose reductase inhibiting property of the compounds of this invention and the utilization of the compounds in preventing, diminishing and alleviating diabetic complications are demonstrable in experiments using galactosemic rats, see Dvornik et al, Science, 182, 1146 (1973). Such experiments are exemplified hereinbelow after the listing of the following general comments pertaining to these experiments.
# (§3) (a) Four or more groups of six male rats, 50-70 g, Sprague-Dawley strain, were used. The first group, the control group, was fed a mixture of laboratory chow (rodent Laboratory Chow, Purina) and glucose at 20% (w/w %) concentration. The untreated galactosemic group and the drug-treated groups were fed a similar diet in which galactose is substituted for glucose. The test compound was either admixed to the diet or administered by gavage. In experiments involving compound administration in the diet, the average dose administered was calculated from the actual food intake of the animals in each group. The concentration of galactose in the diet of the treated groups was the same as that for the untreated galactosemic group.
# (§4) (b) After four days, the animals were killed by decapitation. The eyeballs were removed and punctured with a razor blade; the freed lenses were rolled gently on filter paper and weighed. The sciatic nerves were dissected as completely as possible and weighed. Both tissues when frozen can be kept up to two weeks before being analyzed for galactitol.
# (c) The polyol determination was performed by a modification of the procedure of M. Kraml and L. Cosyns, Clin. Biochem., 2,373 (1969). Only two minor reagent changes were made: (a) The rinsing mixture was an aqueous 5% (w/v) trichloroacetic acid solution and (b) the stock solution was prepared by dissolving 25 mg of dulcitol in 100 mL of an aqueous trichloroacetic acid solution. [N.B.: For each experiment the average value found in the tissue from rats fed the glucose diet was subtracted from the individual values found in the corresponding tissue in galactose-fed rats to obtain the amount of polyol accumulated.] The aldose reductase inhibiting effects of the compounds of formula (I) were also tested by employing an in vitro testing procedure similar to that described by S. Hayman and J. H. Kinoshita, J. Biol. Chem., 240,877 (1965). In the present case the procedure of Hayman and Kinoshita was modified in that the final chromatography step was omitted in the preparation of the enzyme from bovine lens.
# (§5) The figures under L, N, and D represent the percentage decrease of galactitol accumulation in the tissues of the lens, sciatic nerve, and diaphragm, respectively, for treated rats as compared to untreated rats.
# [2] = tested on: sciatic nerve (galactitol accumulation); experiment: Galactitol (dulcitol) accumulation in sciatic nerve of galactosemic rats; assay type: in vivo, rat (male, Sprague-Dawley); details: four days
# Excerpt: (§6) Such experiments are exemplified hereinbelow after the listing of the following general comments pertaining to these experiments.
# as §3, with “The untreated galactosemic group and the drug-treated groups were fed a similar diet in which galactose is substituted for glucose.” left out
# as §4
# as §1, with “(c) The polyol determination was performed by a modification of the procedure of M. Kraml and L. Cosyns, Clin. Biochem., 2,373 (1969). Only” for “Only”
# as §5
# [3] = tested on: diaphragm (galactitol accumulation); experiment: Galactitol (dulcitol) accumulation in diaphragm of galactosemic rats; assay type: in vivo, rat (male, Sprague-Dawley); details: four days
# Excerpt: as §6
# as §3, with “The untreated galactosemic group and the drug-treated groups were fed a similar diet in which galactose is substituted for glucose.” left out
# as §1, with “(c) The polyol determination was performed by a modification of the procedure of M. Kraml and L. Cosyns, Clin. Biochem., 2,373 (1969). Only” for “Only”
# as §5
# rats fed galactose = experiment: Galactosemic rat experiments; assay type: in vivo, rat (male, Sprague-Dawley)
# Excerpt: as §2, §3
# (b) After four days, the animals were killed by decapitation. […] Both tissues when frozen can be kept up to two weeks before being analyzed for galactitol. […]
smiles,measurement,setting,value
"COC(=O)N(CC(=O)O)C(=S)c1cccc2c(C(F)(F)F)c(OC)ccc12 [Example 18a, N-[[6-Methoxy-5-(trifluoromethyl)-1-naphthalenyl]thioxomethyl]-N-[(methoxy)carbonyl]glycine]",inhibition at 1 µM,aldose reductase; 10^-6 M,88%
same,inhibition at 0.1 µM,aldose reductase,29%
same,inhibition at 10 µM,aldose reductase,94%
same,% Lowering dulcitol accumulation IN VIVO (%)L,[1]; 51 mg/kg,N.S.
same,% Lowering dulcitol accumulation IN VIVO (%)N,[2]; 51 mg/kg,N.S.
COc1ccc2c(C(=O)N(CC(=O)O)C(=O)OC(C)C)cccc2c1C(F)(F)F [Example 4],% Lowering dulcitol accumulation IN VIVO (%)L,[1]; dose not given (N.S.),N.S.
same,% Lowering dulcitol accumulation IN VIVO (%)N,[2]; dose not given (N.S.),N.S.
same,% Lowering dulcitol accumulation IN VIVO (%)D,[3]; dose not given (N.S.),N.S.
"COc1ccc2c(C(=S)N(C)CC(=O)O)cccc2c1C(F)(F)F [Example 18b, N-[[6-methoxy-5-(trifluoromethyl)-1-napthalenyl]thioxomethyl]-N-methyglycine, reference compound]",% Lowering dulcitol accumulation IN VIVO (%)L,[1]; 9 mg/kg,N.S.
COc1ccc2c(C(=O)N(CC(=O)O)C(=O)OCc3ccccc3)cccc2c1C(F)(F)F,inhibition at 10 µM,aldose reductase; 10^-5 M,95%
same,inhibition at 1 µM,aldose reductase; 10^-6 M,89%
same,inhibition at 0.1 µM,aldose reductase,66%
same,% Lowering dulcitol accumulation IN VIVO (%)L,[1]; 67 mg/kg,N.S.
same,% Lowering dulcitol accumulation IN VIVO (%)N,[2]; 67 mg/kg,N.S.
same,% Lowering dulcitol accumulation IN VIVO (%)D,[3]; 67 mg/kg,N.S.
"COc1ccc2c(C(=O)N(CC(=O)O)C(=O)N(C)C)cccc2c1C(F)(F)F [Example 11, N-[(Dimethylamino)carbonyl]-N-[[6-methoxy-5-(trifluoromethyl)-1-naphthalenyl]carbonyl]glycine]",inhibition at 10 µM,aldose reductase; 10^-5 M,22%
same,inhibition at 1 µM,aldose reductase; 10^-6 M,3%
same,% Inhibition IN VITRO,aldose reductase,N.S.
COc1ccc2c(C(=O)N(CC(=O)O)C(=O)OCc3ccc(Cl)c([N+](=O)[O-])c3)cccc2c1C(F)(F)F [Example 7],inhibition at 10 µM,aldose reductase; 10^-5 M,95%
same,inhibition at 1 µM,aldose reductase; 10^-6 M,89%
same,inhibition at 0.1 µM,aldose reductase,49%
same,% Lowering dulcitol accumulation IN VIVO (%)L,[1]; 107 mg/kg,N.S.
same,% Lowering dulcitol accumulation IN VIVO (%)N,[2]; 107 mg/kg,N.S.
same,% Lowering dulcitol accumulation IN VIVO (%)D,[3]; 107 mg/kg,N.S.
"COc1ccc2c(C(=O)N(CC(=O)O)C(=O)c3ccccc3)cccc2c1C(F)(F)F [Example 10, N-Benzoyl-N-[[6-methoxy-5-(trifluoromethyl)-1-naphthalenyl]carbonyl]glycine]",inhibition at 10 µM,aldose reductase; 10^-5 M,90%
same,inhibition at 1 µM,aldose reductase; 10^-6 M,62%
same,inhibition at 0.1 µM,aldose reductase,15%
same,% Lowering dulcitol accumulation IN VIVO (%)L,[1]; 50 mg/kg,N.S.
same,% Lowering dulcitol accumulation IN VIVO (%)N,[2]; 50 mg/kg,N.S.
same,% Lowering dulcitol accumulation IN VIVO (%)D,[3]; 50 mg/kg,N.S.
"COc1ccc2c(C(=O)N(C=O)CC(=O)O)cccc2c1C(F)(F)F [Example 8, N-Fromyl-N-[[6-methoxy-5-(trifluoromethyl)-1-naphthalenyl]carbonyl]glycine]",inhibition at 10 µM,aldose reductase; 10^-5 M,95%
same,inhibition at 0.1 µM,aldose reductase,89%
same,inhibition at 1 µM,aldose reductase,96%
same,% Lowering dulcitol accumulation IN VIVO (%)N,[2]; 107 mg/kg,51%
O=CN(CC(=O)O)C(=O)c1cccc2c(Br)cccc12 [Example 14],inhibition at 10 µM,aldose reductase; 10^-5 M,90%
same,inhibition at 1 µM,aldose reductase; 10^-6 M,73%
same,inhibition at 0.1 µM,aldose reductase,22%
same,% Lowering dulcitol accumulation IN VIVO (%)L,[1]; 104 mg/kg,N.S.
same,% Lowering dulcitol accumulation IN VIVO (%)N,[2]; 104 mg/kg,N.S
O=C(O)CN(C(=O)c1ccccc1)C(=O)c1cccc2c(Br)cccc12 [Example 16],inhibition at 10 µM,aldose reductase; 10^-5 M,83%
same,inhibition at 1 µM,aldose reductase; 10^-6 M,58%
same,inhibition at 0.1 µM,aldose reductase,10%
same,% Lowering dulcitol accumulation IN VIVO (%)L,[1]; 111 mg/kg,N.S.
same,% Lowering dulcitol accumulation IN VIVO (%)N,[2]; 111 mg/kg,N.S.
same,% Lowering dulcitol accumulation IN VIVO (%)D,[3]; 111 mg/kg,N.S.
O=C(O)CN(C(=O)OCc1ccccc1)C(=O)c1cccc2c(Br)cccc12 [Example 13],inhibition at 10 µM,aldose reductase; 10^-5 M,87%
same,inhibition at 1 µM,aldose reductase; 10^-6 M,57%
same,inhibition at 0.1 µM,aldose reductase,12%
COC(=O)N(CC(=O)O)C(=O)c1cccc2c(Br)cccc12 [Example 12],inhibition at 10 µM,aldose reductase; 10^-5 M,85%
same,inhibition at 1 µM,aldose reductase; 10^-6 M,54%
same,inhibition at 0.1 µM,aldose reductase,10%
same,% Lowering dulcitol accumulation IN VIVO (%)L,[1]; 102 mg/kg,N.S.
same,% Lowering dulcitol accumulation IN VIVO (%)N,[2]; 102 mg/kg,N.S.
"CCOC(=O)N(CC(=O)O)C(=O)c1cccc2c(C(F)(F)F)c(OC)ccc12 [Example 1, N-[[6-Methoxy-5-(trifluoromethyl)-1-naphthalenyl]carbonyl]-N-[(ethoxy)carbonyl]glycine]",inhibition at 10 µM,aldose reductase; 10^-5 M,97%
same,inhibition at 0.1 µM,aldose reductase,47%
same,inhibition at 1 µM,aldose reductase,94%
same,% Lowering dulcitol accumulation IN VIVO (%)N,[2]; 57 mg/kg,56%
same,% Lowering dulcitol accumulation IN VIVO (%)N,[2]; 97 mg/kg,90%
same,results compared with tolrestat,rats fed galactose; 57 mg/kg/day versus tolrestat at 9 mg/kg/day,comparable results
CCCOC(=O)N(CC(=O)O)C(=O)c1cccc2c(C(F)(F)F)c(OC)ccc12 [Example 3],inhibition at 0.04 µM,aldose reductase; 4 × 10^-8 M,48%
same,inhibition at 10 µM,aldose reductase; 10^-5 M,95%
same,inhibition at 1 µM,aldose reductase; 10^-6 M,90%
same,inhibition at 0.1 µM,aldose reductase,81%
same,% Lowering dulcitol accumulation IN VIVO (%)L,[1]; 48 mg/kg,N.S.
same,% Lowering dulcitol accumulation IN VIVO (%)N,[2]; 48 mg/kg,N.S.
same,% Lowering dulcitol accumulation IN VIVO (%)D,[3]; 48 mg/kg,N.S.
COc1ccc2c(C(=O)N(CC(=O)O)C(=O)OCC(C)(C)C)cccc2c1C(F)(F)F [Example 5],inhibition at 10 µM,aldose reductase; 10^-5 M,90%
same,inhibition at 1 µM,aldose reductase; 10^-6 M,64%
same,inhibition at 0.1 µM,aldose reductase,18%
same,% Lowering dulcitol accumulation IN VIVO (%)L,[1]; 105 mg/kg,N.S.
same,% Lowering dulcitol accumulation IN VIVO (%)N,[2]; 105 mg/kg,N.S.
same,% Lowering dulcitol accumulation IN VIVO (%)D,[3]; 105 mg/kg,N.S.
CN(C)C(=O)N(CC(=O)O)C(=O)c1cccc2c(Br)cccc12 [Example 17],inhibition at 10 µM,aldose reductase; 10^-5 M,23%
same,inhibition at 1 µM,aldose reductase; 10^-6 M,4%
same,% Inhibition IN VITRO,aldose reductase,N.S.
CC(=O)N(CC(=O)O)C(=O)c1cccc2c(Br)cccc12 [Example 15],inhibition at 10 µM,aldose reductase; 10^-5 M,82%
same,inhibition at 1 µM,aldose reductase; 10^-6 M,41%
same,inhibition at 0.1 µM,aldose reductase,7%
same,% Lowering dulcitol accumulation IN VIVO (%)L,[1]; 112 mg/kg,N.S.
same,% Lowering dulcitol accumulation IN VIVO (%)N,[2]; 112 mg/kg,N.S.
same,% Lowering dulcitol accumulation IN VIVO (%)D,[3]; 112 mg/kg,N.S.
"COC(=O)N(CC(=O)O)C(=O)c1cccc2c(C(F)(F)F)c(OC)ccc12 [Example 2, N-[[6-Methoxy-5-(trifluoromethyl)-1-naphthalenyl]carbonyl]-N-[(methoxy)carbonyl]glycine]",inhibition at 10 µM,aldose reductase; 10^-5 M,98%
same,inhibition at 1 µM,aldose reductase; 10^-6 M,97%
same,inhibition at 0.1 µM,aldose reductase,82%
same,% Lowering dulcitol accumulation IN VIVO (%)L,[1]; 48 mg/kg,N.S.
same,% Lowering dulcitol accumulation IN VIVO (%)N,[2]; 48 mg/kg,70%
same,results compared with tolrestat,rats fed galactose; 48 mg/kg/day versus tolrestat at 9 mg/kg/day,comparable results
COc1ccc2c(C(=O)N(CC(=O)O)C(C)=O)cccc2c1C(F)(F)F [Example 9],inhibition at 1 µM,aldose reductase; 10^-6 M,91%
same,inhibition at 0.1 µM,aldose reductase,61%
same,inhibition at 10 µM,aldose reductase,96%
same,% Lowering dulcitol accumulation IN VIVO (%)L,[1]; 100 mg/kg,N.S.
same,% Lowering dulcitol accumulation IN VIVO (%)N,[2]; 100 mg/kg,36%

# Source: patent US4843062A, “N-acyl-N-napthoylglycines as aldose reductase inhibitors” (American Home Products Corporation, priority 1987, dated 1989)
